{"source": "patent EP1576946A1", "about": "“Use of inhibitors of gram-positive cocci in deodorants and antiperspirants” (Henkel Kommanditgesellschaft auf Aktien, priority 2004, dated 2005)", "test_system": "Anaerococcus octavius (Peptostreptococcus octavius)", "assay": "Filter paper/surface method: inhibition zone and growth under the filter disc", "type": "cell-based", "description": "Weiterhin wurden die Wirkstoffe mit Hilfe des Filterpapier/Oberflächenverfahrens vermessen. Der Testkeim Anaerococcus octavius (Peptostreptococcus octavius) war erhältlich als DSM 10024; er wurde 5 Tage bei 37 °C vorinkubiert. 0,3 ml Wirkstofflösung bzw. 0,3 g wirkstoffhaltiges Produkt wurden auf eine Filterpapierscheibe mit einem Durchmesser von 4,5 cm aufgebracht, anschließend wurde die Filterpapierscheibe auf den bakterienhaltigen Agar gelegt. Nach der Inkubationszeit wurde die Größe des gebildeten Hemmhofes vermessen. Bei den Lösungen, für die kein Hemmhof detektiert werden konnte, weil der Wirkstoff nicht in den Agar penetriert war, wurde zusätzlich das Wachstum unter den Filterpapierscheiben beurteilt.", "key": {"[1]": {"settings": "22 Gew.-% Aktivsubstanz, medium Wasser, pH after adjustment ca. 4"}, "[2]": {"settings": "8 Gew.-% Aktivsubstanz, medium Wasser/ Ethanol (30 Vol.-% / 70 Vol.-%), pH after adjustment 4,2"}, "[3]": {"settings": "20 Gew.-% Aktivsubstanz, medium Wasser, pH after adjustment 4,2"}, "[4]": {"settings": "0,5 Gew.-% Aktivsubstanz, medium Wasser, pH tel quel 6,5, after addition of Citronensäure 5,1"}}, "data": [{"compound": "O=C(O)CCCCCCC/C=C\\CCCCCCCC(=O)O", "note": "[Arlatone DCA, 9(Z)-Octadecendicarbonsäure]", "values": [{"measurement": "Wachstum unter der Filterscheibe", "setting": "2 Gew.-% Aktivsubstanz, medium Ethanol", "result": "kein Wachstum"}, {"measurement": "zone of inhibition at 2 %", "setting": "Anaerococcus octavius, 2 Gew.-% Aktivsubstanz, medium Ethanol, read-out: Durchmesser des Hemmhofes", "result": 4, "unit": "mm"}]}, {"compound": "CCCCC(CC)COCC(O)CO", "note": "(stereo not drawn) [Sensiva SC 50, α-Mono-(2-ethylhexyl)glycerinether]", "values": [{"measurement": "Wachstum unter der Filterscheibe", "setting": "0,5 Gew.-% Aktivsubstanz, medium Wasser/ Ethanol (50 Vol.-% / 50 Vol.-%), pH tel quel 6,65, after addition of Citronensäure 5,1", "result": "deutlich gehemmt"}, {"measurement": "zone of inhibition at 0.5 %", "setting": "Anaerococcus octavius, read-out: Durchmesser des Hemmhofes", "result": 0, "unit": "mm"}]}, {"compound": "Aluminium Zirconium Tetrachlorohydrex Gly [REACH AZP 908 (Powder)]", "values": [{"measurement": "Durchmesser des Hemmhofes", "setting": "[1]", "result": 0, "unit": "mm"}, {"measurement": "Wachstum unter der Filterscheibe", "setting": "[1]", "result": "kein Wachstum"}]}, {"compound": "Aluminium chlorohydrate", "values": [{"measurement": "Durchmesser des Hemmhofes", "setting": "[2]", "result": 0, "unit": "mm"}, {"measurement": "Wachstum unter der Filterscheibe", "setting": "[2]", "result": "deutlich gehemmt"}, {"measurement": "Durchmesser des Hemmhofes", "setting": "[3]", "result": 0, "unit": "mm"}, {"measurement": "Wachstum unter der Filterscheibe", "setting": "[3]", "result": "leicht gehemmt"}]}, {"compound": "Zinkgluconat", "values": [{"measurement": "Durchmesser des Hemmhofes", "setting": "[4]", "result": 0, "unit": "mm"}, {"measurement": "Wachstum unter der Filterscheibe", "setting": "[4]", "result": "deutlich gehemmt"}]}]}
